Laboratory results reported in US20200179511A1, “BCMA-TARGETING AGENT, AND COMBINATION THERAPY WITH A GAMMA SECRETASE INHIBITOR” (Novartis AG, priority 2017, published 2020).

What was measured:
shed/soluble BCMA = assay: GSI inhibition of shed/soluble BCMA (sBCMA), ELISA of supernatants, 72 hours, serial dilutions (Example 2, FIG. 8, Table 3); assay type: cell-based, human; settings: inhibition of BCMA shedding / enhancement of membrane BCMA
Protocol: Target human cancer cell lines expressing various levels of human BCMA (NCI-H929^[High], MM1S^[Med], U266B1^[low]) were all transduced to constitutively express luciferase, which is used to measure cell viability/survival with the BrightGlo reagent (Promega E2650). Target cells were plated 30,000 cells per well in a 96 well plate (Costar 3904) together with serial dilutions of a panel of gamma secretase inhibitors (Table 2). The plate was incubated at 37° C./5% CO2 for 72 hours, followed by measurements of cell viability (BrightGlo, Promega # E2650) according to vendor protocol. In a replicate set of assay plates, cell culture supernatants were collected by centrifugation and quantified for levels of soluble BCMA by ELISA (R&D Systems, DY193), and the remaining cells were stained with a PE conjugated BCMA antibody (clone 19F2, Biolegend 357504) and analyzed by flow cytometry for BCMA cell surface expression levels.
Raw OD450 values from the BCMA ELISA were plotted together with the mean fluorescent intensity values from flow cytometry analysis of cells stained with anti-BCMA antibody, and are shown for MM1S cells treated with the various GSIs in FIG. 8. Table 3 summarizes the EC50 results of all the GSIs on the three BCMA-expressing cell lines.

[1] = tested on: BCMA cell surface expression; assay: BCMA cell surface expression by flow cytometry (PE conjugated BCMA antibody) with or without GSI treatment (Example 1, FIG. 2); assay type: cell-based, human; settings: BCMA-expressing multiple myeloma cell lines
Protocol: BCMA expressing cell lines were also treated overnight with and without GSIs. Cell culture supernatants were collected and quantified for levels of soluble BCMA by ELISA (R&D Systems, # DY193). Additionally, remaining cells were pelleted, stained with a PE conjugated BCMA antibody (clone 19F2, Biolegend #357504) and analyzed by flow cytometry for BCMA cell surface expression levels.
BCMA cell surface expression level was determined by flow cytometry on cell lines with or without GSI treatment.

SMILES | efficacious concentrations among the panel of GSIs (rank of potency) (shed/soluble BCMA) | cell surface expression of BCMA [1]
C[C@H](c1ccc(F)cc1CCCC(=O)O)N(c1cc(F)ccc1F)S(=O)(=O)c1ccc(Cl)cc1 [BMS-299897] | least | 
C[C@H](NC(=O)Cc1cc(F)cc(F)c1)C(=O)N[C@H](C(=O)OC(C)(C)C)c1ccccc1 [DAPT] |  | strongly enhances
C[C@H](NC(=O)[C@@H](O)c1cc(F)cc(F)c1)C(=O)N[C@@H]1C(=O)N(C)c2ccccc2-c2ccccc21 [LY-411575, (S)-2-((S)-2-(3,5-difluorophenyl)-2-hydroxyacetamido)-N—((S)-5-methyl-6-oxo-6,7-dihydro-5H-dibenzo[b,d]azepin-7-yl)propanamide] | most potent | strongly enhances
